From article PMC8389922, “First-in-Class Cyclic Temporin L Analogue: Design, Synthesis, and Antimicrobial Assessment” (Journal of Medicinal Chemistry, 2021)
Bridge positions count the residues as written; N and C are the ends. Square brackets hold non-standard residues; d marks the D form. Peptide text beside a SMILES is read from it.

How the values were obtained:
[1] = tested on: preformed biofilm of A. baumannii ATCC 19606; conditions: ATCC 19606, 20 h
Protocol: (§1) Biofilm viability was determined as indicated in the Materials and General Procedures section and expressed as a percentage compared to that of untreated samples (100%). Values are the mean of at least three replicates ± SEM. Data are considered to be statistically significant as follows: *p < 0.05; ***p < 0.001; ****p < 0.0001. Biofilm eradication concentration 90, BEC90, was defined as the concentration able to reduce at least 90% of biofilm cells. TEXT PRINTED IN THE PICTURE: 9: S. aureus ATCC 25923: BEC90 = 25 μM; A. baumannii ATCC 19606: BEC90 > 100 μM | 12: S. aureus ATCC 25923: BEC90 = 12.5 μM; A. baumannii ATCC 19606: BEC90 = 25 μM
(§2) Preformed biofilms of S. aureus ATCC 25923 and A. baumannii ATCC 19606 were obtained as previously reported.[77] Microbial cultures were grown in Luria-Bertani broth (LB) at 37 °C to an optical density (OD) of 0.8 (λ = 590 nm) and then diluted in LB to a cell density of 1 × 10^6 colony-forming units (CFUs)/mL. Aliquots of 100 μL were dispensed into the wells of a 96-well plate, which was incubated for 20 h at 37 °C to allow biofilm formation. The medium containing planktonic cells was then aspirated from the wells and washed twice with 150 μL of phosphate-buffered saline (PBS) to remove any nonadherent cells. […] After treatment, each well was rinsed twice with PBS, as previously described. Then, 150 μL of MTT solution (0.5 mg/mL) were added to each well to evaluate biofilm cell viability. The plates were incubated at 37 °C for 4 h in the dark, and the reaction was stopped by adding sodium dodecyl sulfate (SDS) (at a final concentration of 5% v/v). The absorbance of each well was recorded at 570 nm using a microplate reader (Infinite M200; Tecan, Salzburg, Austria), and the percentage of biofilm cells viability was calculated with respect to the untreated samples (100%).

[2] = tested on: preformed biofilm of S. aureus ATCC 25923
Protocol: as §1, §2

[3] = Membrane fluidity, Laurdan GP value; conditions: lipid 100 μM, Laurdan 1 μM, PBS pH 7.4, 25 °C, 10 min; for GPlaurdan DOPG/DOPE/CL + cmpd: LUVs alone –0.14; for GPlaurdan DOPG/CL + cmpd: LUVs alone –0.32
Protocol: A membrane fluidity study was performed using Laurdan, a probe with the capacity to insert into membranes and to distribute between liquid phases,[66] changing its emission spectrum.[67] In particular, the maximum emission wavelength of Laurdan is 490 nm when phospholipids are in a disordered phase and it shifts to 440 nm when lipids are in a more packed phase. The generalized polarization (GP) parameter was used to measure quantitatively the emission shift of the Laurdan probe.[68] […] LUVs fluidity was evaluated before and after the addition of 12 and 9 at 25 °C. Before the addition of both peptides, emission of LUVs, mimicking both Gram-positive and Gram-negative membranes, indicated the presence of a disordered phase with a maximum at 490 nm (Table 3). […] In fact, GP parameter indicated the presence of a disordered phase for both Gram-positive and Gram-negative liposomes (Table 3).
Laurdan is extensively used as a fluorescent probe in membrane fluidity study.[79] Laurdan emission spectra encapsulated in large unilamellar vesicles (LUVs) are centered at 490 nm when the lipids are in a disordered phase and the emission shifts to 440 nm when the lipids are in a more packed phase. The preparation of LUVs was performed using the extrusion method.[79] To mimic the lipid composition of Gram-positive and Gram-negative membranes, we used LUVs made of DOPG/CL (58/42 ratio in moles) and DOPG/DOPE/CL (63/23/12 ratio in moles), respectively. First, stock solutions of lipids in chloroform were prepared and the assay was performed using a final lipid concentration of 100 μM. Laurdan (1 μM) was added to chloroform/lipids solution before the evaporation of organic solvent. The mixture of lipids and probe was dried under nitrogen gas stream and freeze-dried overnight. Then, lipid film with Laurdan was hydrated with PBS 1× buffer, pH = 7.4, vortexed for 1 h, and freeze-thawed six times and extruded 10 times through polycarbonate membranes with 0.1 μm diameter pores, obtaining LUVs with encapsulated Laurdan. Stock solutions of 2 mM of linear peptide 9 and lactam-bridged analogue 12 were prepared by dissolving peptides in water. The influence of peptides on membrane fluidity was evaluated at 5 and 30 μM. The peptide was added to LUVs + Laurdan probe, and after 10 min, the fluorescence spectra were recorded using a 1 cm path length quartz cell, thermostated at 25 °C. To measure the Laurdan emission shift and to quantify the variation of membrane fluidity, we calculated the generalized polarization (GP) as GP = (I440 – I490)/(I440 + I490).

ANTS/DPX leakage assay = conditions: peptide 5–50 μM, 10 min
Protocol: The destabilization of membrane vesicles by 12 was explored measuring its effect on the release of encapsulated fluorophores in both LUVs mimicking Gram-positive and Gram-negative membranes. ANTS and DPX fluorophores were encapsulated in LUVs, and ANTS release was measured to evaluate the transient pore formation.
The dry lipid films (Cf = 100 μM) were dissolved with a solution of ANTs (12.5 mM) and DPX (45 mM) in water (2 mL) and then lyophilized overnight. The lipid films with encapsulated ANTS and DPX were hydrated with PBS 1× buffer and treated to obtain LUVs using the extrusion method.[81] Then, nonencapsulated ANTs and DPX were separated from liposomes by gel filtration using a Sephadex G-50 column (1.5 cm × 10 cm) at room temperature. Initially, liposomes contain both ANTs and DPX, and DPX efficiently quenches ANT fluorescence by collisional transfer.[82] When LUVs were treated with peptide concentrations of 5, 10, 15, 20, 30, and 50 μM, we measured the leakage of vesicles by measuring the dequenching of ANTS released into the medium. Changes in the fluorescence of 2 mL of ANTS/DPX LUV samples were monitored setting an excitation fluorescence at 385 nm (slit width, 5 nm) and a fluorescence emission at 512 nm (slit width, 5 nm) for 10 min after the addition of the peptide. […]

[4] = 90% fresh human serum (male AB plasma), 37 ± 1 °C, peptide 0.2 mM, MeCN precipitation, RP-UHPLC peak area at 220 nm, triplicate
Protocol: (§3) Peptides were incubated with 90% fresh human serum at 37 ± 1 °C within 12 h.[69] The percentage of intact peptide was monitored by calculating the peak area of the chromatogram from RP-HPLC analysis.
(§4) The peptide was incubated in a 1.5 mL eppendorf tube with human serum at a final concentration of 0.2 mM, and the mixture was incubated at 37 ± 1 °C for different periods (0.25, 0.75, 1.5, 2, 3, 4, 6, 7, 8, and 12 h). After the incubation period, an aliquot of reaction solution was taken and added MeCN (double volume respect to the aliquot) for the precipitation of serum proteins present in human serum. The produced cloudy solution was cooled (4 °C) for 15 min and then centrifuged at 13 000 rpm for 10 min to remove the serum protein as pellet. Then, the supernatant was analyzed by RP-UHPLC using a linear elution gradient from 10 to 90% MeCN (0.1% TFA) in water (0.1% TFA) over 20 min. A flow rate of 1 mL/min was employed, and the absorbance of the eluting peaks was detected at 220 nm. The proteolytic stability assay was repeated in triplicate.

in vitro = conditions: male, human, 90% fresh human serum
Protocol: as §3, §4

CC[C@H](C)[C@H](NC(=O)[C@H](CCCNC(=N)N)NC(=O)[C@@H]1CCC(=O)NCCCC[C@H](NC(=O)[C@H](Cc2ccccc2)NC(=O)[C@H](Cc2c[nH]c3ccccc23)NC(=O)[C@@H]2CCCN2C(=O)[C@@H](NC(=O)[C@@H](N)Cc2ccccc2)C(C)C)C(=O)N[C@@H](CCCCN)C(=O)N[C@@H](Cc2ccccc2)C(=O)N[C@H](CC(C)C)C(=O)N1)C(=O)N[C@@H](CC(C)C)C(N)=O [compound 12] (H-FVPWFKKF[dL]ERIL-NH2; lactam 6-10)
Biofilm Eradication Concentration 90 (BEC90) A. baumannii ATCC 19606 [1]: 25 µM | reduction of viable S. aureus biofilm cells ([2]; 2 h treatment, from 100 to 12.5 μM, with respect to untreated samples): more than 90% | Biofilm Eradication Concentration 90 (BEC90) S. aureus ATCC 25923 ([2]; preformed 20 h biofilm, 2 h treatment in PBS at 37 °C, MTT, concentration reducing at least 90% of biofilm cells): 12.5 µM | GPlaurdan DOPG/DOPE/CL + cmpd ([3]; peptide 5 μM): –0.07 | GPlaurdan DOPG/CL + cmpd ([3]; peptide 5 μM): –0.23 | GPlaurdan DOPG/DOPE/CL + cmpd ([3]; peptide 30 μM): 0.1 | GPlaurdan DOPG/CL + cmpd ([3]; peptide 30 μM): 0.04 | leakage of LUVs (ANTS release) (ANTS/DPX leakage assay; LUVs mimicking Gram-negative membranes): significant leakage ability | leakage of LUVs (ANTS release) (ANTS/DPX leakage assay; LUVs mimicking Gram-positive membranes): low leakage effect | time to complete degradation in human serum [4]: 12 h | half-life at 0.2 mM (in vitro): ~6 h | remaining at 1.5 h, 0.2 mM (in vitro): ~70%
